Experimental data from patent US20110262464A1, “Compositions, Kits, and Methods for the Diagnosis, Prognosis, and Monitoring of Cancer Using GOLPH3” (DANAFARBER CANCER INSTITUTE, INC., priority 2008, published 2011).

Legend:
[1] = test system: WM239A melanoma xenograft tumors; assay: In vivo rapamycin treatment of xenograft tumors; design: species or system mouse; details: WM239A-GOLPH3 tumors; rapamycin 6.0 mg/kg i.p. every other day; day 8, post 4 doses
Procedure: (§1) For in vivo rapamycin studies, melanoma 1205LU and WM239A cells verified to stably-express empty vector or GOLPH3 were subcutaneously implanted into female nude animals (Taconic) at 5.0×10^5 cells/site on both flanks. Tumors were allowed to reach approximately 100 mm^3, after which time animals were randomized into separate cohorts for treatment with vehicle [5% (vol/vol) PEG400.5% (vol/vol) Tween-80) or rapamycin (6 mg/kg; LC Laboratories; 50 mg/ml stock prepared in 100% ETOH and diluted fresh in vehicle solvent for treatment) by intraperitoneal injection every other day. Tumor volumes and body weights were measured upon drug administration. Tumor volume was determined by measuring in two directions with vernier calipers and formulated as tumor volume=[…]. Growth curves were plotted as mean change in tumor volume for each group, where mean change indicates change in tumor volume at a given time point minus tumor volume at time of initial dose administration. Endpoint scatter plots were plotted as proportion of final dose endpoint tumor volume over respective tumor baseline starting volume. Percent tumor growth inhibition was determined as (1-(T/N))×100, where T is the mean change in tumor volume of the treated group and N is the mean change in tumor volume of the control group at the assay endpoint. Two-tailed t-test calculations were performed using Prism 4 (Graphpad).

[2] = test system: 1205LU melanoma xenograft tumors; assay: In vivo rapamycin treatment of xenograft tumors; design: species or system mouse; details: 1205LU-GOLPH3 tumors; rapamycin 6.0 mg/kg i.p. every other day; day 8, post 4 doses
Procedure: as §1

CO[C@H]1C[C@@H]2CC[C@@H](C)[C@@](O)(O2)C(=O)C(=O)N2CCCC[C@H]2C(=O)O[C@H]([C@H](C)C[C@@H]2CC[C@@H](O)[C@H](OC)C2)CC(=O)[C@H](C)/C=C(\C)[C@@H](O)[C@@H](OC)C(=O)[C@H](C)C[C@H](C)/C=C/C=C/C=C/1C [rapamycin]
percent tumor growth inhibition (% TGI) [1]: 80.9%
percent tumor growth inhibition (% TGI) [2]: 81.9%
